Measured values: article PMC9667936, “Functional mapping of the 14-3-3 hub protein as a guide to design 14-3-3 molecular glues” (Chemical Science, 2022)
Where a SMILES comes first, the peptide text is derived from it. [ ]: non-standard residue; d: D form. The star is where a group is joined. ξ: configuration not given here. FITC = O=C1OC2(c3ccc(O)cc3Oc3cc(O)ccc32)c2ccc(NC(=S)*)cc21; Phe(4-NO2) = N[C@@H](Cc1ccc([N+](=O)[O-])cc1)C(=O)O; ξAla(4-thiazolyl) = NC(Cc1cscn1)C(=O)O; pS = N[C@@H](COP(=O)(O)O)C(=O)O; β3hS = N[C@@H](CO)CC(=O)O; βAla = NCCC(=O)O

Target: T1, 14-3-3γ/ChREBP (Homo sapiens, UniProt P61981+Q9NP71)
T1 construct: made in house; host or cells: E. coli NiCo21 (DE3) for 14-3-3 gamma; ChREBP is a synthetic peptide
T1 sequence (P61981 1-247): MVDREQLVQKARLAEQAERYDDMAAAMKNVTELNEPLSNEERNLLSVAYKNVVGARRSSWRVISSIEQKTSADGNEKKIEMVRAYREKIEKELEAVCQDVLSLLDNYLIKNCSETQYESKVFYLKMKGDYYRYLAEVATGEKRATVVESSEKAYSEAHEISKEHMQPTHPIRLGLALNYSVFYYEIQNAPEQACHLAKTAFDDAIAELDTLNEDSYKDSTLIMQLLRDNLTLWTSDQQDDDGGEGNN
T1 sequence (Q9NP71 118-142 partner limits assumed): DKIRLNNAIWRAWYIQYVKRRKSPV
Assay: FA ChREBP titration to FITC-labelled peptide with or without 14-3-3 (ternary complex formation)
Type: binding
Conditions: for ternary complex formation (anisotropy) on ChREBP titration in presence of 14-3-3γ: ChREBP titrated to preformed complex of 14-3-3γ and FITC-labelled peptide, Fig. 5d
Protocol: performed twice per cycle with 20% v/v piperidine in N,N-dimethylformamide (DMF) for five minutes.
Fmoc-protected amino acids were mixed with 9 equivalents HBTU (0.38 M in DMF) and 15 equivalents of DIPEA, and coupled to the resin for 30 minutes (except pS, which is coupled for 60 minutes).
Peptides 1 and 2e-i were labeled with fluorescein via a 5-(-fluorenylmehyloxycarbonyl-amino)-3-oxapentanoic acid (O1-Pen) linker using 5 equivalents of FITC and 7.5 equivalents of DIPEA reacting overnight with continuous agitation. Removal of protecting groups and cleavage of the resin was performed by incubation in a mixture of trifluoroacetic acid (TFA), H2O, and triisopropylsilane (TIS) (96.5:2.5:1) for 2 hours with continuous agitation, followed by precipitation in an excess of ice-cold […]
Peptides 1 and 2a-d were FITC labeled via a three-step approach. The free amine on the N-terminus was protected as follows: to a solution of di-tert-butyl decarbonate (10 eq, 400 mM) in DCM was added DIEA (10 eq), and solution was added to the resin. Coupling was allowed to proceed for 1 h. At this time, resin was washed 3x with DCM and coupling was repeated as described. […]
All peptides were purified using preparative HP-LC. […] The purity of the samples was assessed using a UV detector at 254 […]
Fluorescence anisotropy (FA) - binary binding studies: 14-3-3γ was titrated in a 2-fold dilution series (starting at 100 or 400 µM 14-3-3γ) to 10 nM of fluorescein-labeled peptide in FA buffer (10 mM HEPES pH 7.4, 150 mM NaCl, 0.1% (v/v) Tween20, 0.1% (w/v) BSA). […]
Measurements were performed directly after plate preparation, using a Tecan Infinite F500 plate reader at room temperature (lex: 485 ± 20 nm; lem: 535 ± 25 nm; mirror: Dichroic 510; flashes: 20; integration time: 50 ms; settle time: 0 ms; gain: optimal; and Z-position: calculated from well). […] All data were analyzed using GraphPad Prism (7.00) for Windows and fitted using a four-parameter logistic model (4PL). Each measurement was performed in three independent experiments, average and standard deviations were calculated in Excel […]

| SMILES | ternary complex formation (anisotropy) on ChREBP titration in presence of 14-3-3γ | increase in anisotropy on ChREBP titration to FITC-labelled peptide alone (no 14-3-3 present, Fig. 5e) |
| --- | --- | --- |
| C[C@H](NC(=O)[C@H](CCCCN)NC(=O)[C@H](Cc1ccc([N+](=O)[O-])cc1)NC(=O)CCNC(=O)C[C@H](CO)NC(=O)[C@H](Cc1ccc([N+](=O)[O-])cc1)NC(=O)[C@H](COP(=O)(O)O)NC(=O)C(N)Cc1cscn1)C(=O)N[C@@H](CCCCNC(=S)Nc1ccc2c(c1)C(=O)OC21c2ccc(O)cc2Oc2cc(O)ccc21)C(N)=O (stereo partly drawn) [2c] (H-[ξAla(4-thiazolyl)][pS][Phe(4-NO2)][β3hS][βAla][Phe(4-NO2)]KAK(FITC)-NH2) | lack of increase in anisotropy values |  |
| C[C@H](NC(=O)[C@H](CCCCN)NC(=O)[C@H](Cc1ccc([N+](=O)[O-])cc1)NC(=O)CCNC(=O)C[C@H](CO)NC(=O)[C@H](Cc1ccc([N+](=O)[O-])cc1)NC(=O)[C@@H](N)COP(=O)(O)O)C(=O)N[C@@H](CCCCNC(=S)Nc1ccc2c(c1)C(=O)OC21c2ccc(O)cc2Oc2cc(O)ccc21)C(N)=O [2d] (H-[pS][Phe(4-NO2)][β3hS][βAla][Phe(4-NO2)]KAK(FITC)-NH2) | dose-dependent increase in 14-3-3/ChREBP/2d complex formation | not observed |
